Reference: PubChem BioAssay (NCI)
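Each compound was tested at five concentrations against cells in 96-well plates for 48 hours. At the GI50, growth is halved. TGI is the concentration that stops growth completely.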

Experiments:
Assay in all cases: DTP human tumour cell line panel, 48 h
OVCAR-3 ovarian = test system: OVCAR-3 ovarian
RXF 393 renal = test system: RXF 393 renal
T-47D breast = test system: T-47D breast
A549 NSCLC = test system: A549 NSCLC
SW-620 colon = test system: SW-620 colon
NCI-H226 lung = test system: NCI-H226 lung
HCC-2998 colon = test system: HCC-2998 colon
UACC-62 melanoma = test system: UACC-62 melanoma
HCT-15 colon = test system: HCT-15 colon
NCI-H522 lung = test system: NCI-H522 lung
TK-10 renal = test system: TK-10 renal
MCF7 breast = test system: MCF7 breast
SK-OV-3 ovarian = test system: SK-OV-3 ovarian
SF-268 CNS = test system: SF-268 CNS
A498 renal = test system: A498 renal
HL-60(TB) leukemia = test system: HL-60(TB) leukemia
OVCAR-5 ovarian = test system: OVCAR-5 ovarian
OVCAR-8 ovarian = test system: OVCAR-8 ovarian
HS 578T breast = test system: HS 578T breast
M14 melanoma = test system: M14 melanoma
HCT-116 colon = test system: HCT-116 colon
NCI/ADR-RES ovarian = test system: NCI/ADR-RES ovarian
EKVX NSCLC = test system: EKVX NSCLC
HT29 colon = test system: HT29 colon
HOP-62 NSCLC = test system: HOP-62 NSCLC
UACC-257 melanoma = test system: UACC-257 melanoma
U251 CNS = test system: U251 CNS
SK-MEL-2 melanoma = test system: SK-MEL-2 melanoma
CCRF-CEM leukemia = test system: CCRF-CEM leukemia
RPMI-8226 leukemia = test system: RPMI-8226 leukemia
MDA-MB-231 breast = test system: MDA-MB-231 breast
PC-3 prostate = test system: PC-3 prostate
SR leukemia = test system: SR leukemia
OVCAR-4 ovarian = test system: OVCAR-4 ovarian
LOX IMVI melanoma = test system: LOX IMVI melanoma
DU-145 prostate = test system: DU-145 prostate
SF-295 CNS = test system: SF-295 CNS
UO-31 renal = test system: UO-31 renal
SF-539 CNS = test system: SF-539 CNS
MDA-MB-435 = test system: MDA-MB-435
HOP-92 NSCLC = test system: HOP-92 NSCLC
K-562 leukemia = test system: K-562 leukemia
MOLT-4 leukemia = test system: MOLT-4 leukemia
NCI-H460 lung = test system: NCI-H460 lung
SK-MEL-5 melanoma = test system: SK-MEL-5 melanoma
BT-549 breast = test system: BT-549 breast
SN12C renal = test system: SN12C renal
ACHN renal = test system: ACHN renal
COLO 205 colon = test system: COLO 205 colon
KM12 colon = test system: KM12 colon
CAKI-1 renal = test system: CAKI-1 renal
SNB-75 CNS = test system: SNB-75 CNS
SK-MEL-28 melanoma = test system: SK-MEL-28 melanoma
786-0 renal = test system: 786-0 renal
IGROV1 ovarian = test system: IGROV1 ovarian
SNB-19 CNS = test system: SNB-19 CNS

Compound: Cc1ccc(S(=O)(=O)NC2=NCCN2C(=S)SN2CCn3c2nsc3=S)cc1
- GI50 (OVCAR-3 ovarian): 10.5 µM
- TGI (OVCAR-3 ovarian): 27.9 µM
- GI50 (RXF 393 renal): 8.17 µM
- TGI (RXF 393 renal): 20.9 µM
- GI50 (T-47D breast): 11.3 µM
- TGI (T-47D breast): 26.2 µM
- GI50 (A549 NSCLC): 30.4 µM
- TGI (A549 NSCLC): 90.2 µM
- GI50 (SW-620 colon): 14.1 µM
- TGI (SW-620 colon): 40.7 µM
- GI50 (NCI-H226 lung): 19.9 µM
- TGI (NCI-H226 lung): 50.6 µM
- GI50 (HCC-2998 colon): 21 µM
- TGI (HCC-2998 colon): 50.6 µM
- GI50 (UACC-62 melanoma): 15.1 µM
- TGI (UACC-62 melanoma): 32.3 µM
- GI50 (HCT-15 colon): 15.1 µM
- TGI (HCT-15 colon): 31.7 µM
- GI50 (NCI-H522 lung): 5.01 µM
- TGI (NCI-H522 lung): 18.8 µM
- GI50 (TK-10 renal): 11.1 µM
- TGI (TK-10 renal): 24.7 µM
- GI50 (MCF7 breast): 32.5 µM
- TGI (MCF7 breast): > 100 µM
- GI50 (SK-OV-3 ovarian): 0.116 µM
- TGI (SK-OV-3 ovarian): 13.6 µM
- GI50 (SF-268 CNS): 32.4 µM
- TGI (SF-268 CNS): 87.2 µM
- GI50 (A498 renal): 28.6 µM
- TGI (A498 renal): 68.7 µM
- GI50 (HL-60(TB) leukemia): 11.2 µM
- TGI (HL-60(TB) leukemia): 55.6 µM
- GI50 (OVCAR-5 ovarian): 20.1 µM
- TGI (OVCAR-5 ovarian): 40.8 µM
- GI50 (OVCAR-8 ovarian): 24.3 µM
- TGI (OVCAR-8 ovarian): 72.1 µM
- GI50 (HS 578T breast): 31.4 µM
- TGI (HS 578T breast): > 100 µM
- GI50 (M14 melanoma): 15.2 µM
- TGI (M14 melanoma): 32.1 µM
- GI50 (HCT-116 colon): 13.7 µM
- TGI (HCT-116 colon): 28.8 µM
- GI50 (NCI/ADR-RES ovarian): 31.8 µM
- TGI (NCI/ADR-RES ovarian): > 100 µM
- GI50 (EKVX NSCLC): 27.7 µM
- TGI (EKVX NSCLC): > 100 µM
- GI50 (HT29 colon): 29.9 µM
- TGI (HT29 colon): 97.5 µM
- GI50 (HOP-62 NSCLC): 22.4 µM
- TGI (HOP-62 NSCLC): 57.5 µM
- GI50 (UACC-257 melanoma): 19 µM
- TGI (UACC-257 melanoma): 43.4 µM
- GI50 (U251 CNS): 19.1 µM
- TGI (U251 CNS): 39 µM
- GI50 (SK-MEL-2 melanoma): 28.6 µM
- TGI (SK-MEL-2 melanoma): 89.2 µM
- GI50 (CCRF-CEM leukemia): 14 µM
- TGI (CCRF-CEM leukemia): 51.9 µM
- GI50 (RPMI-8226 leukemia): 16.7 µM
- TGI (RPMI-8226 leukemia): 73.2 µM
- GI50 (MDA-MB-231 breast): 15.1 µM
- TGI (MDA-MB-231 breast): 38 µM
- GI50 (PC-3 prostate): 17.2 µM
- TGI (PC-3 prostate): 51.7 µM
- GI50 (SR leukemia): 7.29 µM
- TGI (SR leukemia): 36.6 µM
- GI50 (OVCAR-4 ovarian): 14 µM
- TGI (OVCAR-4 ovarian): 28.2 µM
- GI50 (LOX IMVI melanoma): 1.92 µM
- TGI (LOX IMVI melanoma): 4.25 µM
- GI50 (DU-145 prostate): 26.4 µM
- TGI (DU-145 prostate): > 100 µM
- GI50 (SF-295 CNS): 18.2 µM
- TGI (SF-295 CNS): 50.8 µM
- GI50 (UO-31 renal): 2.93 µM
- TGI (UO-31 renal): 11 µM
- GI50 (SF-539 CNS): 22 µM
- TGI (SF-539 CNS): 52.7 µM
- GI50 (MDA-MB-435): 17.3 µM
- TGI (MDA-MB-435): 41.8 µM
- GI50 (HOP-92 NSCLC): 24.7 µM
- TGI (HOP-92 NSCLC): > 100 µM
- GI50 (K-562 leukemia): 14.8 µM
- TGI (K-562 leukemia): 42.4 µM
- GI50 (MOLT-4 leukemia): 20.6 µM
- TGI (MOLT-4 leukemia): > 100 µM
- GI50 (NCI-H460 lung): 31 µM
- TGI (NCI-H460 lung): > 100 µM
- GI50 (SK-MEL-5 melanoma): 21.8 µM
- TGI (SK-MEL-5 melanoma): 50.3 µM
- GI50 (BT-549 breast): 23.4 µM
- TGI (BT-549 breast): 55.8 µM
- GI50 (SN12C renal): 19.4 µM
- TGI (SN12C renal): 46.9 µM
- GI50 (ACHN renal): 6.56 µM
- TGI (ACHN renal): 19.6 µM
- GI50 (COLO 205 colon): 6.62 µM
- TGI (COLO 205 colon): 21.2 µM
- GI50 (KM12 colon): 16.6 µM
- TGI (KM12 colon): 32.7 µM
- GI50 (CAKI-1 renal): 3.47 µM
- TGI (CAKI-1 renal): 14.6 µM
- GI50 (SNB-75 CNS): 24.7 µM
- TGI (SNB-75 CNS): 52.9 µM
- GI50 (SK-MEL-28 melanoma): 17.2 µM
- TGI (SK-MEL-28 melanoma): 32.7 µM
- GI50 (786-0 renal): 19.1 µM
- TGI (786-0 renal): 44.4 µM
- GI50 (IGROV1 ovarian): 14.1 µM
- TGI (IGROV1 ovarian): 34.6 µM
- GI50 (SNB-19 CNS): 28.6 µM
- TGI (SNB-19 CNS): 83.1 µM
